According to publication PMC11475570, “Impact of Optimized Ku–DNA Binding Inhibitors on the Cellular and In Vivo DNA Damage Response” (Cancers, 2024):
Several values for one entry are separate records, joined by “and”; a condition that tells them apart may be missing. Equal values may be shown once. Values belong to the compound of their own block, whether it stands above or below them.

What was measured:
[1] = biological target: T1, Ku 70/80 (Homo sapiens, UniProt P12956+P13010); experiment: EMSA Ku–DNA binding inhibition; conditions: 32P-labeled 30-bp duplex DNA, purified Ku 70/80, mean and SD of triplicate
T1 construct: made in house; host or cells: baculovirus-infected Sf9 cells
T1 sequence (P12956 whole entry): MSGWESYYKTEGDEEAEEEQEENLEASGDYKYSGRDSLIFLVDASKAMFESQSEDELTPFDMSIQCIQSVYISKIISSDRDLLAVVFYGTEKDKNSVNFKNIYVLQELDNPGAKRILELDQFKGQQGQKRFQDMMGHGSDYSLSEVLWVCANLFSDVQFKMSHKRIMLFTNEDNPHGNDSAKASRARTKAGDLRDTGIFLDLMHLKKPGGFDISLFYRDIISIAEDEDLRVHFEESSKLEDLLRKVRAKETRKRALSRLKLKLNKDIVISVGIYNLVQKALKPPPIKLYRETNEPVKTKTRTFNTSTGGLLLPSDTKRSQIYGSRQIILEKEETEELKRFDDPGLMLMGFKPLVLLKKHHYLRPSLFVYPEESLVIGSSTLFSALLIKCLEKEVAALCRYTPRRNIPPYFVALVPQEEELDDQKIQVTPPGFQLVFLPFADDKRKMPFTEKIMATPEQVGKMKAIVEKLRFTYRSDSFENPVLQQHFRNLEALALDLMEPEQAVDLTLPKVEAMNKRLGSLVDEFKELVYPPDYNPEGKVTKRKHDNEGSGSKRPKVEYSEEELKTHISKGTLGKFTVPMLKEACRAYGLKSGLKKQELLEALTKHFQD
T1 sequence (P13010 whole entry): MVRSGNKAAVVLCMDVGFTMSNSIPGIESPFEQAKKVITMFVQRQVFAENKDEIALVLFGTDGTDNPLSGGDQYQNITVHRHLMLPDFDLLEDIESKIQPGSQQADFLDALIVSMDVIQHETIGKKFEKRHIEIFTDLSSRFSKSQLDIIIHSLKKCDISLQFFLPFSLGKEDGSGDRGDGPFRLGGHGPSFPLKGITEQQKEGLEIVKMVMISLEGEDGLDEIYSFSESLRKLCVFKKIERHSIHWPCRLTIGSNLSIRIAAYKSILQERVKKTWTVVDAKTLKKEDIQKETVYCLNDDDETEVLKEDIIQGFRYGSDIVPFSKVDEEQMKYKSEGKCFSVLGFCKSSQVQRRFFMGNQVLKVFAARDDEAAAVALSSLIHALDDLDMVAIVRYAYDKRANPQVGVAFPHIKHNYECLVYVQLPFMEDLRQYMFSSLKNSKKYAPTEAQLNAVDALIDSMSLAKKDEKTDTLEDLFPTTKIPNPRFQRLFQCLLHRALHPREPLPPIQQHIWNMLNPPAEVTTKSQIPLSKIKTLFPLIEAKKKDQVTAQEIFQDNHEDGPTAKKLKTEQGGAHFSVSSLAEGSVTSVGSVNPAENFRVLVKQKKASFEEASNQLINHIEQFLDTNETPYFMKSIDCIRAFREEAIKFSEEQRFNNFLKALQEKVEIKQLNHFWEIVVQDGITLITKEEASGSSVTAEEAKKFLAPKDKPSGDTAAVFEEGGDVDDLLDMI
Method: (§1) The inhibitory activity of Ku-DBis on Ku-DNA binding was evaluated in vitro using Electrophoretic mobility shift assays (EMSA) with a [^32P]-labeled 30-bp duplex DNA and purified Ku 70/80. Kinase assays were performed to measure the DNA-dependent transfer of [^32P] from γ-[^32P] ATP to a synthetic p53-based peptide substrate, both as previously described. Both EMSA and DNA-PK inhibitor titration assays were performed in triplicate. Data were fit to standard binding curves using GraphPad Prism to determine IC50 values.

[2] = biological target: T2, DNA-PK (Homo sapiens, UniProt P12956+P13010); experiment: DNA-PK kinase assay (phosphate transfer to p53 peptide); assay type: biochemical; conditions: for IC50: DNA-dependent phosphate transfer to synthetic p53 peptide, purified DNA-PK, mean and SD of triplicate
T2 construct: made in house; Ku 70/80 from baculovirus-infected Sf9 cells
T2 sequence (P12956 whole entry): as the sequence (P12956 whole entry) above
T2 sequence (P13010 whole entry): as the sequence (P13010 whole entry) above
Method: as §1

[3] = tested on: H460 NSCLC cells; experiment: Cellular uptake by HPLC; assay type: in vitro ADME, Human; conditions: H460, 10 µM, media with 10% FBS
Method: Cellular uptake was evaluated in two NSCLC cell lines, H460 and A549. Cells were seeded into 6-well plates at a density of 1 × 10^6 cells per well and cultured as monolayers at 37 °C and 5% CO2 for 18–24 h. Ku-DBis were added to the media at a concentration of 10 µM and incubation continued for the times indicated. Media were removed, cells were washed 3 times with PBS, 1 mL of methanol was added to each well, and cells were agitated overnight at 4 °C. The methanol was collected, and wells were washed with an additional 1 mL of methanol that was then pooled with the original. The methanol extracts were then dried under vacuum, resuspended in methanol, and analyzed by HPLC using a 250 × 4.6 and 5 μm C-18 reverse phase column with 1% TFA mobile phase in acetonitrile (ACN) gradient elution. Absorption was monitored at 425 nm, HPLC peaks were quantified using a standard curve, and picomoles of compound per million cells was calculated.

[4] = tested on: MDA-MB-468; experiment: Bleomycin-sensitization activity, CCK-8; assay type: cell-based, Human; conditions: BRCA1 wild-type MDA-MB-468
Method: (§2) Cell metabolism/viability was assessed using a mitochondrial metabolism assay (CCK-8) kit (Cell Counting Kit-8, Cat: CK04, Dojindo Laboratories, Rockville, MD, USA) as previously described. Briefly, cells were seeded at a density of 3 × 10^3 cells per well in 96-well plates and allowed to adhere and stretch for 18–24 h prior to treatment. Cells were pre-treated with Ku-DBi for 24 h before bleomycin treatments. Subsequently, cells were incubated for an additional 48 h at 37 °C after which CCK-8 assay was performed. The absorbance of the formed formazan product in each well was measured at 450 nm and compared to vehicle-treated controls to determine percent cell viability. The results represent the average and SEM of triplicate determinations.

[5] = tested on: MDA-MB-436; experiment: Bleomycin-sensitization activity, CCK-8; assay type: cell-based, Human; conditions: BRCA1 mutant MDA-MB-436
Method: as §2

[6] = tested on: A549; experiment: CCK-8 cell viability, single agent; assay type: cell-based, Human
Method: as §2

[7] = tested on: H460; experiment: CCK-8 cell viability, single agent; assay type: cell-based, Human
Method: as §2

[8] = tested on: MDA-468; experiment: CCK-8 cell viability, single agent; assay type: cell-based, Human
Method: as §2

[9] = tested on: MDA-436; experiment: CCK-8 cell viability, single agent; assay type: cell-based, Human
Method: as §2

[10] = tested on: H1299; experiment: CCK-8 cell viability, single agent; assay type: cell-based, Human
Method: as §2

[11] = tested on: H23; experiment: CCK-8 cell viability, single agent; assay type: cell-based, Human
Method: as §2

- IC50 [1]: 2.4 µM and 2.41 µM
- DNA-PK inhibitory activity, fold more active than fluoro-modified counterparts (3618 and 3649) [2]: ~ 2.5 fold
- IC50 [2]: 0.77 ± 0.24 µM
SMILES: COc1cccc(NC(=O)c2cc(-c3ccc(/C=C4\C(=O)N(c5cccc(C(=O)O)c5)c5ccccc54)o3)ccc2OC)c1 [GL-3395]

- Cellular uptake, fold more efficient than methoxy-derivatives 3395 and 3649 [3]: ~ 3 fold
- IC50 [1]: 3.36 ± 0.89 µM
- IC50 [2]: 1.72 ± 0.15 µM
SMILES: O=C(O)c1cccc(N2C(=O)/C(=C\c3ccc(-c4ccc(F)c(C(=O)Nc5cccc(OC(F)(F)F)c5)c4)o3)c3ccccc32)c1 [GL-3618]

- IC50 [1]: 3.55 ± 0.4 µM
- IC50 [2]: 1.74 ± 0.61 µM
SMILES: COc1cccc(NC(=O)c2cc(-c3ccc(/C=C4\C(=O)N(c5cccc(C(=O)O)c5)c5ccccc54)o3)ccc2F)c1 [GL-3649]

- IC50 ([6]; A549, CCK-8, 72 h, mean ± SD): ~4.5 µM
- IC50 ([7]; H460, CCK-8, 72 h, mean ± SD): 4.8 ± 1 µM
- IC50 ([10]; H1299, CCK-8, 72 h, mean ± SD): 4 ± 0.9 µM
SMILES: O=c1cc(N2CCOCC2)oc2c(-c3cccc4c3sc3ccccc34)cccc12 [NU-7441, reference compound]
- Change in sensitivity to bleomycin [4]: increase in sensitivity
- Change in sensitivity to bleomycin [5]: decrease in sensitivity to bleomycin
- Cell Viability at 25 µM ([6]; 25 µM): 13.6 ± 1.4 %ctrl
- Cell Viability at 25 µM ([7]; 25 µM): 8.3 ± 0.1 %ctrl
- Cell Viability at 25 µM ([8]; 25 µM): 4.1 ± 0.9 %ctrl
- IC50 ([8]; MDA-468, CCK-8, 72 h, mean ± SD): 5.2 ± 0.4 µM
- Cell Viability at 25 µM ([9]; 25 µM): 17.8 ± 1.3 %ctrl
- IC50 ([9]; MDA-436, CCK-8, 72 h, mean ± SD): 8.1 ± 0.9 µM
- Cell Viability at 25 µM ([10]; 25 µM): 17.8 ± 5.4 %ctrl
- Cell Viability at 25 µM ([11]; 25 µM): 4.8 ± 0.5 %ctrl
- Fold more sensitive than the other NSCLC lines ([11]; ATM-null H23 cells): ~ 2 fold
- IC50 ([11]; H23, CCK-8, 72 h, mean ± SD): 2.2 ± 0.1 µM
